Assay [1] has as its system MIA PaCa-2 cells (K-Ras G12C). Kind of assay: Ras-SOS cellular growth inhibition assay (CellTiter-Glo, 3D). Type of assay: cell-based. The settings on record: Homo sapiens. A digest of the protocol:
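MIA PaCa-2 cells grown in ultra-low-attachment plates (3D) in DMEM/Ham's F12 with 10% FCS and 2.5% horse serum, treated the day after seeding with a 9-point 3-fold compound series for about 5 days. Viability by CellTiter-Glo luminescence; IC50 from four-parameter fit.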
In general terms: In ATP-based viability assays light output follows the ATP content of the culture.

For another assay, the target named is SOS1 (Homo sapiens (Human), UniProt Q07889). In words: Ras-SOS interaction assay (HTRF). Type of assay: biochemical. A general note: Time-resolved FRET reads energy transfer from a long-lived donor to a nearby acceptor.
Assay [2] has as its system NCI-H1975 cells (EGFR T790M L858R). Kind of assay: EGFR-SOS cellular inhibition assay (CellTiter-Glo, 3D). Type of assay: cell-based. The following applies: Homo sapiens.
The mark [3] stands for this setting: MIA PaCa-2, 120 h, MIA PaCa-2, 3D proliferation, about 5 days, read-out: Bio-Cell-Prolif-3D (MiaPaca2 IC50).
The mark [4] stands for this setting: MIA PaCa-2, MIA PaCa-2, read-out: IC50 in inhibiting MIA PaCa-2 cell growth.
Setting [5] is: K-RasG13D utilized, read-out: IC50 inhibition of SOS.
Where [6] appears, read: K-RasG13D, read-out: IC50 value against SOS1.
Where [7] appears, read: 120 h, NCI-H1975, 3D proliferation, about 5 days, read-out: Bio-Cell-Prolif-3D (H1975 IC50).
Where [8] appears, read: NCI-H1975, EGFR T790M L858R, read-out: IC50 in inhibiting growth of NCI-H1975 cell line.

Read-outs that look alike come from different tables or passages of the source.

Sequence of SOS1 (Q07889 564-1049): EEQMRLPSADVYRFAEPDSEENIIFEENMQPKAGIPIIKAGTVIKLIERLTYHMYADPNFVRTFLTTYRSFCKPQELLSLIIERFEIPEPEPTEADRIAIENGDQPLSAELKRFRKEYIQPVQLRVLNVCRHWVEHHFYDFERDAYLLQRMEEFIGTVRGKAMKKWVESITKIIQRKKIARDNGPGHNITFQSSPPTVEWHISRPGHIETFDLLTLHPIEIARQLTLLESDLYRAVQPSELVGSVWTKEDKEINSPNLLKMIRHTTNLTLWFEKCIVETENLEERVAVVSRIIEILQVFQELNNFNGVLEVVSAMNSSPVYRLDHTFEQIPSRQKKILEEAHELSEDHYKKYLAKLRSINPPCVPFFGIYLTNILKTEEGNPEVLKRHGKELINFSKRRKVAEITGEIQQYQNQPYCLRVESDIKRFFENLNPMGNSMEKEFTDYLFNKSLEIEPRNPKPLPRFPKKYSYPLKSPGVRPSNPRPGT

As usually defined, the IC50 is the concentration needed to halve the response being measured. As for `CC(C)N1CCC(c2cc3c(N[C@H](C)c4cccc(C(F)(F)C5CCN(C(C)C)CC5)c4F)ncnc3nc2Cl)CC1` [Compound 218, (R)-7-chloro-N-(1-(3-(difluoro(1-isopropylpiperidin-4-yl)methyl)-2-fluorophenyl)ethyl)-6-(1-isopropylpiperidin-4-yl)pyrido[2,3-d]pyrimidin-4-amine], the IC50 in assay [1] (setting [3]) was no more than 1 µM; in assay [1] (setting [4]) it was less than 0.5 µM; on SOS1 (setting [5]), less than 0.1 µM; on SOS1 (setting [6]) it was less than 0.05 µM; in assay [2] (setting [7]), no more than 1 µM; in assay [2] (setting [8]), less than 0.5 µM.
Turning to `COc1nc2nc(C)nc(N[C@H](C)c3cccc(C(F)F)c3F)c2cc1CN1CCN(C(C)C)CC1` [Compound 105, (R)—N-(1-(3-(difluoromethyl)-2-fluorophenyl)ethyl)-6-((4-isopropylpiperazin-1-yl)methyl)-7-methoxy-2-methylpyrido[2,3-d]pyrimidin-4-amine], the IC50 in assay [1] (setting [3]) was no more than 1 µM; in assay [1] (setting [4]), less than 0.5 µM; on SOS1 (setting [5]) it was less than 0.1 µM; at SOS1 (setting [6]), less than 0.05 µM; in assay [2] (setting [7]), no more than 1 µM; in assay [2] (setting [8]), less than 0.5 µM.
As to `Cc1nc(N[C@H](C)c2cccc(C(F)F)c2F)c2cc(C3(C#N)CC3)c(OC3CCN(C)CC3)nc2n1` [Compound 232, (R)-1-(4-((1-(3-(difluoromethyl)-2-fluorophenyl)ethyl)amino)-2-methyl-7-((1-methylpiperidin-4-yl)oxy)pyrido [2,3-d]pyrimidin-6-yl)cyclopropane-1-carbonitrile], the IC50 in assay [1] (setting [3]) is no more than 1 µM; in assay [1] (setting [4]) it was less than 0.5 µM; at SOS1 (setting [5]), less than 0.1 µM; at SOS1 (setting [6]), less than 0.05 µM; in assay [2] (setting [7]), no more than 1 µM; in assay [2] (setting [8]), less than 0.5 µM.
Take `COc1nc2ncnc(N[C@H](C)c3cccc(C(F)(F)F)c3F)c2cc1N1CCN(C)CC1` [Compound 197, (R)-N-(1-(2-fluoro-3-(trifluoromethyl)phenyl)ethyl)-7-methoxy-6-(4-methylpiperazin-1-yl)pyrido[2,3-d] pyrimidin-4-amine]: the IC50 in assay [1] (setting [3]) is no more than 1 µM; in assay [1] (setting [4]) it was less than 0.5 µM; on SOS1 (setting [5]), less than 0.1 µM; at SOS1 (setting [6]) it was less than 0.05 µM; in assay [2] (setting [7]), no more than 1 µM; in assay [2] (setting [8]), less than 0.5 µM.
With `Cc1nc(N[C@H](C)c2cccc(C(F)F)c2F)c2cc(N3CCN(C(C)C)CC3)c(NC3COC3)nc2n1` [Compound 192, (R)-N4-(1-(3-(difluoromethyl)-2-fluorophenyl)ethyl)-6-(4-isopropylpiperazin-1-yl)-2-methyl-N7-(oxetan-3-yl)pyrido[2,3-d] pyrimidine-4,7-diamine], the half-maximal inhibitory concentration (IC50) in assay [1] (setting [3]) was 1 to 10 µM; at SOS1 (setting [5]) it was less than 0.1 µM; on SOS1 (setting [6]), less than 0.05 µM; in assay [2] (setting [7]), no more than 1 µM.
As to `Cc1nc(N[C@H](C)c2cccc(C(F)(F)F)c2F)c2cc(C3CCS(=O)(=O)CC3)c(Cl)nc2n1` [Compound 262, (R)-4-(7-chloro-4-((1-(2-fluoro-3-(trifluoromethyl)phenyl)ethyl)amino)-2-methylpyrido[2,3-d]pyrimidin-6-yl)tetrahydro-2H-thiopyran 1,1-dioxide], the concentration for half-maximal inhibition (IC50) in assay [1] (setting [3]) is no more than 1 µM; at SOS1 (setting [5]), less than 0.1 µM; at SOS1 (setting [6]), less than 0.05 µM; in assay [2] (setting [7]) it was no more than 1 µM; in assay [2] (setting [8]), less than 0.5 µM.
`COc1nc2nc(C)nc(N[C@H](C)c3cccc(C(F)(F)C4CCN(C(C)C)CC4)c3F)c2cc1C1CCS(=O)(=O)CC1` [Compound 379, (R)-4-(4-((1-(3-(difluoro(1-isopropylpiperidin-4-yl)methyl)-2-fluorophenyl)ethyl)amino)-7-methoxy-2-methylpyrido[2,3-d]pyrimidin-6-yl)tetrahydro-2H-thiopyran 1,1-dioxide]: the concentration for half-maximal inhibition (IC50) in assay [1] (setting [3]) was no more than 1 µM; in assay [1] (setting [4]) it was less than 0.5 µM; on SOS1 (setting [5]), less than 0.1 µM; at SOS1 (setting [6]), less than 0.05 µM; in assay [2] (setting [7]), no more than 1 µM; in assay [2] (setting [8]), less than 0.5 µM.
For `COc1nc2nc(C)nc(N[C@H](C)c3cccc(C(F)F)c3F)c2cc1N1CCN(C)CC1` [Compound 123, (R)-N-(1-(3-(difluoromethyl)-2-fluorophenyl)ethyl)-7-methoxy-2-methyl-6-(4-methylpiperazin-1-yl)pyrido[2,3-d] pyrimidin-4-amine], the half-maximal inhibitory concentration (IC50) in assay [1] (setting [3]) was no more than 1 µM; in assay [1] (setting [4]), less than 0.5 µM; at SOS1 (setting [6]), less than 0.05 µM; in assay [2] (setting [7]), no more than 1 µM.
Regarding `Cc1nc(N[C@H](C)c2cccc(C(F)F)c2F)c2cc(N3CCN(C(C)C)CC3)c(OC3CN(C)C3)nc2n1` [Compound 370, (R)-N-(1-(3-(difluoromethyl)-2-fluorophenyl)ethyl)-6-(4-isopropylpiperazin-1-yl)-2-methyl-7-((1-methylazetidin-3-yl)oxy)pyrido[2,3-d]pyrimidin-4-amine], the half-inhibitory concentration (IC50) in assay [1] (setting [3]) is no more than 1 µM; at SOS1 (setting [5]), less than 0.1 µM; at SOS1 (setting [6]), less than 0.05 µM; in assay [2] (setting [7]), no more than 1 µM.
Turning to `COc1nc2nc(C)nc(N[C@H](C)c3cccc(C(F)(F)CO)c3)c2cc1C1CCS(=O)(=O)CC1` [Compound 239, (R)-4-(4-((1-(3-(1,1-difluoro-2-hydroxyethyl)phenyl)ethyl)amino)-7-methoxy-2-methylpyrido[2,3-d]pyrimidin-6-yl)tetrahydro-2H-thiopyran 1,1-dioxide], the IC50 in assay [1] (setting [3]) was no more than 1 µM; in assay [1] (setting [4]), less than 0.5 µM; at SOS1 (setting [5]), less than 0.1 µM; on SOS1 (setting [6]), less than 0.05 µM; in assay [2] (setting [7]), no more than 1 µM; in assay [2] (setting [8]), less than 0.5 µM.
Consider `CC(C)N1CCC(c2cc3c(N[C@H](C)c4cccc(C(F)F)c4F)ncnc3nc2OC2CN(C)C2)CC1` [Compound 187, (R)-N-(1-(3-(difluoromethyl)-2-fluorophenyl)ethyl)-6-(1-isopropylpiperidin-4-yl)-7-((1-methylazetidin-3-yl)oxy)pyrido[2,3-d]pyrimidin-4-amine], for which the half-maximal inhibitory concentration (IC50) in assay [1] (setting [3]) is 1 to 10 µM; at SOS1 (setting [5]) it was less than 0.1 µM; on SOS1 (setting [6]), less than 0.05 µM; in assay [2] (setting [7]), 1 to 10 µM.
For the compound `COc1nc2nc(C)nc(N[C@H](C)c3cccc(C(F)(F)F)c3F)c2cc1C1CCN(C(=O)CN(C)C)CC1` [Compound 302, (R)-2-(dimethylamino)-1-(4-(4-((1-(2-fluoro-3-(trifluoromethyl)phenyl)ethyl)amino)-7-methoxy-2-methylpyrido[2,3-d]pyrimidin-6-yl)piperidin-1-yl)ethan-1-one], the half-maximal inhibitory concentration (IC50) was no more than 1 µM in assay [1] (setting [3]); less than 0.1 µM at SOS1 (setting [5]); less than 0.05 µM on SOS1 (setting [6]); no more than 1 µM in assay [2] (setting [7]); less than 0.5 µM in assay [2] (setting [8]).
Take `Cc1nc(N[C@H](C)c2cccc(C(F)F)c2F)c2cc(C3(C#N)CC3)c(N3CCOCC3)nc2n1` [Compound 396, (R)-1-(4-((1-(3-(difluoromethyl)-2-fluorophenyl)ethyl)amino)-2-methyl-7-morpholinopyrido[2,3-d]pyrimidin-6-yl)cyclopropane-1-carbonitrile]: the 50% inhibitory concentration (IC50) in assay [1] (setting [3]) was no more than 1 µM; in assay [1] (setting [4]), less than 0.5 µM; at SOS1 (setting [5]) it was less than 0.1 µM; on SOS1 (setting [6]) it was less than 0.05 µM; in assay [2] (setting [7]), no more than 1 µM.
In the case of `COc1nc2ncnc(N[C@H](C)c3cccc(C(C)(F)F)c3F)c2cc1N1CCS(=O)(=O)CC1` [Compound 292, (R)-4-(4-((1-(3-(1,1-difluoroethyl)-2-fluorophenyl)ethyl)amino)-7-methoxypyrido[2,3-d]pyrimidin-6-yl)thiomorpholine 1,1-dioxide], the IC50 in assay [1] (setting [3]) was no more than 1 µM; in assay [1] (setting [4]), less than 0.5 µM; at SOS1 (setting [5]) it was less than 0.1 µM; on SOS1 (setting [6]), less than 0.05 µM; in assay [2] (setting [7]), no more than 1 µM; in assay [2] (setting [8]), less than 0.5 µM.
For `Cc1nc(N[C@H](C)c2cccc(C(F)F)c2F)c2cc(S(=O)(=O)C3CCN(C)CC3)c(C#N)nc2n1` [Compound 341, (R)-4-((1-(3-(difluoromethyl)-2-fluorophenyl)ethyl)amino)-2-methyl-6-((1-methylpiperidin-4-yl)sulfonyl)pyrido[2,3-d] pyrimidine-7-carbonitrile], the half-inhibitory concentration (IC50) in assay [1] (setting [3]) was no more than 1 µM; in assay [1] (setting [4]), less than 0.5 µM; at SOS1 (setting [5]), less than 0.1 µM; at SOS1 (setting [6]) it was less than 0.05 µM; in assay [2] (setting [7]) it was no more than 1 µM; in assay [2] (setting [8]), less than 0.5 µM.
On to `CC(C)N1CCN(c2cc3c(N[C@H](C)c4cccc(C(F)F)c4F)ncnc3nc2OC2COC2)CC1` [Compound 413, (R)-N-(1-(3-(difluoromethyl)-2-fluorophenyl)ethyl)-6-(4-isopropylpiperazin-1-yl)-7-(oxetan-3-yloxy)pyrido[2,3-d] pyrimidin-4-amine], for which the IC50 is no more than 1 µM in assay [1] (setting [3]); less than 0.5 µM in assay [1] (setting [4]); less than 0.1 µM at SOS1 (setting [5]); less than 0.05 µM on SOS1 (setting [6]); no more than 1 µM in assay [2] (setting [7]); less than 0.5 µM in assay [2] (setting [8]).
For the compound `COc1nc2ncnc(N[C@H](C)c3cccc(C(F)(F)F)c3C)c2cc1N1CCN(C)CC1` [Compound 386, (R)-7-methoxy-N-(1-(2-methyl-3-(trifluoromethyl)phenyl)ethyl)-6-(4-methylpiperazin-1-yl)pyrido[2,3-d] pyrimidin-4-amine], the IC50 in assay [1] (setting [3]) is no more than 1 µM; in assay [1] (setting [4]), less than 0.5 µM; at SOS1 (setting [5]), less than 0.1 µM; at SOS1 (setting [6]), less than 0.05 µM; in assay [2] (setting [7]) it was no more than 1 µM; in assay [2] (setting [8]), less than 0.5 µM.

Source of the values: patent US11648254B2 (Kumquat Biosciences Inc., priority 2021, dated 2023).
